Source: patent publication US20090227575A1, “7H-PYRROLO[2,3-H]QUINAZOLINE COMPOUNDS, THEIR USE AS mTOR KINASE AND PI3 KINASE INHIBITORS, AND THEIR [sequence]” (Wyeth, priority 2008, published 2009)

Legend:
Type in all cases: biochemical
PI3K-alpha = PI3K-alpha (Homo sapiens, UniProt P42336); assay: PI3K-alpha fluorescence polarization assay; settings: read-out: PI3 Kinase α IC50
Method: (§1) The reaction buffer was 20 mM HEPES, pH 7.5, 2 mM MgCl2, 0.05% CHAPS; and 0.01% βME (added fresh). The Stop/Detection Buffer was 100 mM HEPES, pH 7.5, 4 mM EDTA, 0.05% CHAPS; ATP 20 mM in water; PIP2 (diC8, Echelon, Salt Lake City Utah cat #P-4508) 1 mM in water (MW=856.5). The GST-GRP was 1.75 mg/mL or 1.4 mg/mL in 10% glycerol. The Red detector (TAMRA) was 2.5 μM. Nunc 384-well black polypropylene fluorescent plates were used for PI3K assays.
(§2) The assay is run by placing 5 μL of diluted enzyme per well, then 5 μL of diluted compound (or 9.5 μL enzyme then 0.5 μL compound in DMSO) is added and mixed. Then, 10 μL substrate is added to start the reaction. The samples are incubated 30-60 minutes, then the reaction is stopped by adding 20 μL stop/detector mix. PI3K is diluted with reaction buffer (e.g., 5 μL or 7.5 μL PI3K into 620 μL reaction buffer), and 5 μL of diluted enzyme is used per well. A 5 μL portion of reaction buffer or of drug diluted in buffer (e.g., 4 μL/100 so final DMSO is 1% in reaction) is added to each. Pipetting up and down mixes the samples. Alternatively, the enzyme can be diluted to 1215 μL. In this case 9.8 μL is added per well and 0.2 μL compound is added in DMSO.
(§3) To prepare 1 mL of substrate solution, 955 μL reaction buffer, 40 μL PIP2, and 2.5 μL ATP are mixed. 10 μL of substrate is added to each well to start the reaction. […] The stop/detector mix is prepared by mixing 4 μL Red detector and 1.6 μL or 2.0 μL GST-GRP with 1 mL stop buffer, which results in 10 nM probe and 70 nM GST-GRP. 20 μL of the stop/detector mix is added to each well to stop the reaction. The plates are read after 30-90 minutes keeping the red probe solutions dark. For the zero time point, stop/detector mix is added to the enzyme just before adding substrate. For an extra control, stop/detector mix is added to buffer (no enzyme) and substrate or to just buffer (no substrate). […] The recommended reaction has 0.06 μL per 20 μL (0.015 μg/20 μL) or 0.01125 μg/15 μL or 0.75 μg/mL.
(§4) Plates are read on machines with filters for TAMRA. The units are mP with no enzyme controls reading app 190-220 mP units. Fully active enzyme reduces fluorescence polarization down to 70-100 mP after 30 minutes. An active compound raises the mP values halfway to control or to 120-150 mP units.

PI3K-gamma = PI3K-gamma (Homo sapiens, UniProt P48736); assay: PI3K-gamma fluorescence polarization assay; settings: read-out: PI3 Kinase γ IC50
Method: as §1, §2, §3, §4

Human mTOR = Human mTOR (Homo sapiens, UniProt P42345); assay: mTOR kinase assay (DELFIA format, purified enzyme); set-up: FLAG; settings: read-out: TOR Kinase IC50

PI3K-alpha, sequence (P42336 whole entry, species assumed): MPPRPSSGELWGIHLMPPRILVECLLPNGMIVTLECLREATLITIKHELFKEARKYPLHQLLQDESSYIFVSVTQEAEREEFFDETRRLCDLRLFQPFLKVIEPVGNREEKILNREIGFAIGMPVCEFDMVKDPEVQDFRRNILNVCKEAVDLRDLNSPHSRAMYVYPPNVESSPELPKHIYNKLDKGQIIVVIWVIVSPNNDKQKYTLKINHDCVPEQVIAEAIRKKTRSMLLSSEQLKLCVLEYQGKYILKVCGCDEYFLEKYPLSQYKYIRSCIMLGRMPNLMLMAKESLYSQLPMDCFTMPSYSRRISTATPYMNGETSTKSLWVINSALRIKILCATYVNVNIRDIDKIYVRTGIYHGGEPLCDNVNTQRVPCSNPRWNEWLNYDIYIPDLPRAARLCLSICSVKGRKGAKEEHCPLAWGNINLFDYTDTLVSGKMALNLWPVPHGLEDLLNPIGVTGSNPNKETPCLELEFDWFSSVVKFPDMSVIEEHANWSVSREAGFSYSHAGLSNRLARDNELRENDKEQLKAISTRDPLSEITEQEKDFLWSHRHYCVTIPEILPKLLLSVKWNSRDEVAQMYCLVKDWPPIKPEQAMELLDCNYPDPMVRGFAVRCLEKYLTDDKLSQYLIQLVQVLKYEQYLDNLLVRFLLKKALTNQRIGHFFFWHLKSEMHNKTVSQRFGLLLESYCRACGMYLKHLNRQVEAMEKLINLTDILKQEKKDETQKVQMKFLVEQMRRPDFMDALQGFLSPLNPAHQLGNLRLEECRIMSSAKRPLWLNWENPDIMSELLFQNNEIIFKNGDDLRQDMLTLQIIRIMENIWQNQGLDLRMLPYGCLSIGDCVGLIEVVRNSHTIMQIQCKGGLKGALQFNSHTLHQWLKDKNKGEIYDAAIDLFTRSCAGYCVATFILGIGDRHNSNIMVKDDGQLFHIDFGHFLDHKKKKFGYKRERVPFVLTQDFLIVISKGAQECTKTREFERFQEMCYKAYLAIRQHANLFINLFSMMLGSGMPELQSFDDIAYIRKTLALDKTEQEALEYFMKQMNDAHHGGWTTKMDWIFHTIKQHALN
PI3K-alpha, sequence (P27986 whole entry partner, species assumed): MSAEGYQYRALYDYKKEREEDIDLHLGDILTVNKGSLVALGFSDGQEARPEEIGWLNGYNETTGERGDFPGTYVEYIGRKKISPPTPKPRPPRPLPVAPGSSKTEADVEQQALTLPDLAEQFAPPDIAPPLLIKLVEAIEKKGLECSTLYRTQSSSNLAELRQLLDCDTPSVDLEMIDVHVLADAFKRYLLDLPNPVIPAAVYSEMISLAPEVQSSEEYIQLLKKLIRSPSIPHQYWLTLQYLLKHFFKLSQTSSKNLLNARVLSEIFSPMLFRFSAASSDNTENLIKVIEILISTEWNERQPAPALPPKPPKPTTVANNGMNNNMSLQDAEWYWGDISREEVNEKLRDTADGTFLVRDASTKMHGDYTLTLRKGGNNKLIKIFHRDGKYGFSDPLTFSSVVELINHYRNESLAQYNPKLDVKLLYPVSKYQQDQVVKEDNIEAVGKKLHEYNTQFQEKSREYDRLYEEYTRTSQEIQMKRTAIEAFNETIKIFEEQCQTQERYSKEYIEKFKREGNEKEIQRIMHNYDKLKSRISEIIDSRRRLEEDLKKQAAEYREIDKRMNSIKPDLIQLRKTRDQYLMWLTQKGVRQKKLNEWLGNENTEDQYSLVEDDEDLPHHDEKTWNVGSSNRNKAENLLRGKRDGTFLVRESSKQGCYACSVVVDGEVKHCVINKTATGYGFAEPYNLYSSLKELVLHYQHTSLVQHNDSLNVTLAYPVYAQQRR
PI3K-gamma, sequence (P48736 whole entry, species assumed): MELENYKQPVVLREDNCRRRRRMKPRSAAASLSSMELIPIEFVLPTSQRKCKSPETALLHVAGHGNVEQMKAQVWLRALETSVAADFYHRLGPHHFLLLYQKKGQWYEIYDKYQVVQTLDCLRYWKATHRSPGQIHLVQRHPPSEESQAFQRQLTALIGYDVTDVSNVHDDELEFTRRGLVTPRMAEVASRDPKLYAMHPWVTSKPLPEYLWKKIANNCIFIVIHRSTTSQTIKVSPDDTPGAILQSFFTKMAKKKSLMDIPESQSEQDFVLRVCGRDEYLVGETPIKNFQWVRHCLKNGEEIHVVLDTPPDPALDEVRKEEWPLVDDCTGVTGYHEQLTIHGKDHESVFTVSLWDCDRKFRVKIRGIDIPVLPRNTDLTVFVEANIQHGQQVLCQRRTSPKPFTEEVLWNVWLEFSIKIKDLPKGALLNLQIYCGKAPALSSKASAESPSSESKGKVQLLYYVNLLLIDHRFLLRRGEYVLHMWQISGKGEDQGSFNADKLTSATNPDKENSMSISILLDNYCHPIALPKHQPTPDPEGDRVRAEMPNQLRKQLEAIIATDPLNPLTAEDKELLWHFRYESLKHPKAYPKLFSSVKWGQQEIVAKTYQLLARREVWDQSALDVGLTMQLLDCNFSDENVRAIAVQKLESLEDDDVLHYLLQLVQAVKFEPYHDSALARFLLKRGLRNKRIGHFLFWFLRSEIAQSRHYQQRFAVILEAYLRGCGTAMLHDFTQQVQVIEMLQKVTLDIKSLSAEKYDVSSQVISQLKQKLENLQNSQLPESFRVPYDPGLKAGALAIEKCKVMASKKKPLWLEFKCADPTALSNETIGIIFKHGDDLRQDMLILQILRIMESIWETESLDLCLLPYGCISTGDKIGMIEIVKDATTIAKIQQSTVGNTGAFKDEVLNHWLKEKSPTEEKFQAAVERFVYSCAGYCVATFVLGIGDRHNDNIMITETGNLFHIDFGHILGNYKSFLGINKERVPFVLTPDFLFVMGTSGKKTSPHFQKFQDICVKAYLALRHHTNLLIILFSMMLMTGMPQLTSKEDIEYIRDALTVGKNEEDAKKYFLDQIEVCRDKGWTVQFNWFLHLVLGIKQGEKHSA

With Cn1ccc2c3nc(-c4ccc(NC(=O)c5ccc(F)cc5)cc4)nc(N4CCOCC4)c3ccc21 [Example 19, 4-fluoro-N-[4-(7-methyl-4-morpholin-4-yl-7H-pyrrolo[2,3-h]quinazolin-2-yl)phenyl]benzamide] the IC50 (PI3K-alpha) was 12000 nM, the IC50 (PI3K-gamma) was 6170 nM and the IC50 (Human mTOR) was 1250 nM.

Work on CCOC(=O)Nc1ccc(-c2nc(N3CCOCC3)c3ccc4c(ccn4C)c3n2)cc1 [Example 20, ethyl [4-(7-methyl-4-morpholin-4-yl-7H-pyrrolo[2,3-h]quinazolin-2-yl)phenyl]carbamate] yielded an IC50 (PI3K-alpha) of 3310 nM, an IC50 (PI3K-gamma) of 2090 nM and an IC50 (Human mTOR) of 390 nM.

Molecule Cn1ccc2c3nc(-c4ccc(NS(=O)(=O)c5ccccc5)cc4)nc(N4CCOCC4)c3ccc21 [Example 22, N-[4-(7-methyl-4-morpholin-4-yl-7H-pyrrolo[2,3-h]quinazolin-2-yl)phenyl]benzenesulfonamide] has an IC50 (PI3K-alpha) of 8400 nM, an IC50 (PI3K-gamma) of 6160 nM and an IC50 (Human mTOR) of 5300 nM.

Cn1ccc2c3nc(-c4cccc(C=O)c4)nc(N4CCOCC4)c3ccc21 [Example 23, 3-(7-methyl-4-morpholin-4-yl-7H-pyrrolo[2,3-h]quinazolin-2-yl)benzaldehyde] showed an IC50 (PI3K-alpha) of 5330 nM, an IC50 (PI3K-gamma) of 9500 nM and an IC50 (Human mTOR) of 320 nM.

With CC(O)c1cccc(-c2nc(N3CCOCC3)c3ccc4c(ccn4C)c3n2)c1 (stereo not drawn) [Example 24, 1-[3-(7-methyl-4-morpholin-4-yl-7H-pyrrolo[2,3-h]quinazolin-2-yl)phenyl]ethanol] the IC50 (PI3K-alpha) was 2350 nM, the IC50 (PI3K-gamma) was over 10000 nM and the IC50 (Human mTOR) was 1650 nM.

CCC(O)c1cccc(-c2nc(N3CCOCC3)c3ccc4c(ccn4C)c3n2)c1 (stereo not drawn) [Example 25, 1-[3-(7-methyl-4-morpholin-4-yl-7H-pyrrolo[2,3-h]quinazolin-2-yl)phenyl]propan-1-ol] showed an IC50 (PI3K-alpha) of 7550 nM, an IC50 (PI3K-gamma) of over 10000 nM and an IC50 (Human mTOR) of 3050 nM.

C=CC(O)c1cccc(-c2nc(N3CCOCC3)c3ccc4c(ccn4C)c3n2)c1 (stereo not drawn) [Example 26, 1-[3-(7-methyl-4-morpholin-4-yl-7H-pyrrolo[2,3-h]quinazolin-2-yl)phenyl]prop-2-en-1-ol] showed an IC50 (PI3K-alpha) of 5420 nM, an IC50 (PI3K-gamma) of over 10000 nM and an IC50 (Human mTOR) of 2100 nM.

For C=CCC(O)c1cccc(-c2nc(N3CCOCC3)c3ccc4c(ccn4C)c3n2)c1 (stereo not drawn) [Example 27, 1-[3-(7-methyl-4-morpholin-4-yl-7H-pyrrolo[2,3-h]quinazolin-2-yl)phenyl]but-3-en-1-ol], the IC50 (PI3K-alpha) was 6590 nM, the IC50 (PI3K-gamma) was 6660 nM and the IC50 (Human mTOR) was 2800 nM.

CC(C)CC(O)c1cccc(-c2nc(N3CCOCC3)c3ccc4c(ccn4C)c3n2)c1 (stereo not drawn) [Example 28, 3-methyl-1-[3-(7-methyl-4-morpholin-4-yl-7H-pyrrolo[2,3-h]quinazolin-2-yl)phenyl]butan-1-ol] showed an IC50 (PI3K-alpha) of 2510 nM, an IC50 (PI3K-gamma) of 4520 nM and an IC50 (Human mTOR) of 2700 nM.

Cn1ccc2c3nc(-c4cccc(C(O)c5ccccc5)c4)nc(N4CCOCC4)c3ccc21 (stereo not drawn) [Example 29, [3-(7-methyl-4-morpholin-4-yl-7H-pyrrolo[2,3-h]quinazolin-2-yl)phenyl](phenyl)methanol] was tested, and the IC50 (PI3K-alpha) was 2970 nM, the IC50 (PI3K-gamma) was 4070 nM and the IC50 (Human mTOR) was 3800 nM.

CN(C)CCn1ccc2c3nc(-c4cccc(CO)c4)nc(N4CCOCC4)c3ccc21 [Example 30, (3-{7-[2-(dimethylamino)ethyl]-4-morpholin-4-yl-7H-pyrrolo[2,3-h]quinazolin-2-yl}phenyl)methanol] gave an IC50 (PI3K-alpha) of 455 nM, an IC50 (PI3K-gamma) of 4950 nM and an IC50 (Human mTOR) of 9150 nM.

CN(C)CCn1ccc2c3nc(-c4cccc(OCc5ccccc5)c4)nc(N4CCOCC4)c3ccc21 [Example 31, 2-{2-[3-(benzyloxy)phenyl]-4-morpholin-4-yl-7H-pyrrolo[2,3-h]quinazolin-7-yl}-N,N-dimethylethanamine] gave an IC50 (PI3K-alpha) of 4030 nM, an IC50 (PI3K-gamma) of 2480 nM and an IC50 (Human mTOR) of over 20000 nM.

In the case of CN(C)CCn1ccc2c3nc(-c4cccc(O)c4)nc(N4CCOCC4)c3ccc21 [Example 32, 3-{7-[2-(dimethylamino)ethyl]-4-morpholin-4-yl-7H-pyrrolo[2,3-h]quinazolin-2-yl}phenol], the IC50 (PI3K-alpha) is reported as 322 nM, the IC50 (PI3K-gamma) is reported as 3620 nM and the IC50 (Human mTOR) is reported as 4550 nM.

With CN(C)CCn1ccc2c3nc(-c4ccc(NC(=O)Nc5ccncc5)cc4)nc(N4CCOCC4)c3ccc21 [Example 33, 1-(4-{7-[2-(dimethylamino)ethyl]-4-morpholin-4-yl-7H-pyrrolo[2,3-h]quinazolin-2-yl}phenyl)-3-pyridin-4-ylurea] the IC50 (PI3K-alpha) was 222 nM, the IC50 (PI3K-gamma) was 862 nM and the IC50 (Human mTOR) was 15 nM.

CN(C)CCn1ccc2c3nc(-c4cnc(N)nc4)nc(N4CCOCC4)c3ccc21 [Example 34, 5-{7-[2-(dimethylamino)ethyl]-4-morpholin-4-yl-7H-pyrrolo[2,3-h]quinazolin-2-yl}pyrimidin-2-amine] gave an IC50 (PI3K-alpha) of 201 nM, an IC50 (PI3K-gamma) of 3190 nM and an IC50 (Human mTOR) of 1300 nM.

Cn1ccc2c3nc(-c4cccc(O)c4)nc(N4CCOCC4)c3ccc21 [Example 35, 3-(7-methyl-4-morpholin-4-yl-7H-pyrrolo[2,3-h]quinazolin-2-yl)phenol] was tested, and the IC50 (PI3K-alpha) was 174 nM, the IC50 (PI3K-gamma) was 2230 nM and the IC50 (Human mTOR) was 410 nM.

COC(=O)c1ccc(-c2nc(N3CCOCC3)c3ccc4c(ccn4C)c3n2)cc1 [Example 36, Methyl 4-(7-methyl-4-morpholin-4-yl-7H-pyrrolo[2,3-h]quinazolin-2-yl)benzoate] was tested, and the IC50 (PI3K-alpha) was 1760 nM, the IC50 (PI3K-gamma) was 4000 nM and the IC50 (Human mTOR) was 1600 nM.

With Cn1ccc2c3nc(-c4ccc(N)nc4)nc(N4CCOCC4)c3ccc21 [Example 42, 5-(7-methyl-4-morpholin-4-yl-7H-pyrrolo[2,3-h]quinazolin-2-yl)pyridin-2-amine] the IC50 (PI3K-alpha) was 616 nM, the IC50 (PI3K-gamma) was 3590 nM and the IC50 (Human mTOR) was 630 nM.

Work on Cn1ccc2c3nc(-c4cnc(N)nc4)nc(N4CCOCC4)c3ccc21 [Example 43, 5-(7-methyl-4-morpholin-4-yl-7H-pyrrolo[2,3-h]quinazolin-2-yl)pyrimidin-2-amine] yielded an IC50 (PI3K-alpha) of 48 nM, an IC50 (PI3K-gamma) of 426 nM and an IC50 (Human mTOR) of 247 nM.

CC(=O)NCc1cccc(-c2nc(N3CCOCC3)c3ccc4c(ccn4C)c3n2)c1 [Example 44, N-[3-(7-methyl-4-morpholin-4-yl-7H-pyrrolo[2,3-h]quinazolin-2-yl)benzyl]acetamide] gave an IC50 (PI3K-alpha) of 9360 nM, an IC50 (PI3K-gamma) of 9500 nM and an IC50 (Human mTOR) of 4000 nM.

In the case of Cn1ccc2c3nc(-c4cccc5[nH]ccc45)nc(N4CCOCC4)c3ccc21 [Example 45, 2-(1H-indol-4-yl)-7-methyl-4-morpholin-4-yl-7H-pyrrolo[2,3-h]quinazoline], the IC50 (PI3K-alpha) is reported as 2460 nM, the IC50 (PI3K-gamma) is reported as 2830 nM and the IC50 (Human mTOR) is reported as 1130 nM.

Molecule Oc1cccc(-c2nc(N3CCOCC3)c3ccc4c(ccn4Cc4ccccc4)c3n2)c1 [Example 46, 3-(7-benzyl-4-morpholin-4-yl-7H-pyrrolo[2,3-h]quinazolin-2-yl)phenol] has an IC50 (PI3K-alpha) of 216 nM, an IC50 (PI3K-gamma) of 209 nM and an IC50 (Human mTOR) of 420 nM.

COc1ccc(-c2nc(N3CCOCC3)c3ccc4c(ccn4C)c3n2)cn1 [Example 47, 2-(6-methoxypyridin-3-yl)-7-methyl-4-morpholin-4-yl-7H-pyrrolo[2,3-h]quinazoline] was tested, and the IC50 (PI3K-alpha) was over 10000 nM, the IC50 (PI3K-gamma) was over 10000 nM and the IC50 (Human mTOR) was 2050 nM.

With Cn1ccc2c3nc(-c4ccc(O)nc4)nc(N4CCOCC4)c3ccc21 [Example 48, 5-(7-methyl-4-morpholin-4-yl-7H-pyrrolo[2,3-h]quinazolin-2-yl)pyridin-2-ol] the IC50 (PI3K-alpha) was over 10000 nM, the IC50 (PI3K-gamma) was over 10000 nM and the IC50 (Human mTOR) was 7550 nM.

COc1ncc(-c2nc(N3CCOCC3)c3ccc4c(ccn4C)c3n2)cn1 [Example 50, 2-(2-methoxypyrimidin-5-yl)-7-methyl-4-morpholin-4-yl-7H-pyrrolo[2,3-h]quinazoline] gave an IC50 (PI3K-alpha) of 668 nM, an IC50 (PI3K-gamma) of over 10000 nM and an IC50 (Human mTOR) of 2350 nM.

With Cn1ccc2c3nc(-c4cc(O)ccc4Cl)nc(N4CCOCC4)c3ccc21 [Example 53, 4-chloro-3-(7-methyl-4-morpholin-4-yl-7H-pyrrolo[2,3-h]quinazolin-2-yl)phenol] the IC50 (PI3K-alpha) was 214 nM, the IC50 (PI3K-gamma) was 1010 nM and the IC50 (Human mTOR) was 910 nM.

CN(C)S(=O)(=O)Nc1cccc(-c2nc(N3CCOCC3)c3ccc4c(ccn4C)c3n2)c1 [Example 55, N,N-dimethyl-N′-[3-(7-methyl-4-morpholin-4-yl-7H-pyrrolo[2,3-h]quinazolin-2-yl)phenyl]sulfamide] gave an IC50 (PI3K-alpha) of 4340 nM, an IC50 (PI3K-gamma) of 6160 nM and an IC50 (Human mTOR) of 525 nM.
